Results published in patent publication US20260327216A1, “SUBSTITUTED OXAZOLONE COMPOUND FOR DECREASING LEVELS OF IKZF I-4 PROTEINS” (BRISTOL-MYERS SQUIBB COMPANY, priority 2023, published 2026).

Key:
[1] = molecular target: IKZF2 Helios (Homo sapiens, UniProt Q96SW2+Q9UKS7); assay: Human Regulatory T Cell Degradation Assay, IKZF2; format: cell-based; set-up: endogenous in cells; host or cells: FACS-sorted human CD4+CD127lowCD25+ Treg cells from healthy leukopaks; settings: human regulatory T cells, 20 hours; for Dmax: Regulatory T cell, 100% = complete degradation, read-out: IKZF2 Helios max % deg. observed
Sequence of IKZF2 Helios (Q9UKS7 whole entry): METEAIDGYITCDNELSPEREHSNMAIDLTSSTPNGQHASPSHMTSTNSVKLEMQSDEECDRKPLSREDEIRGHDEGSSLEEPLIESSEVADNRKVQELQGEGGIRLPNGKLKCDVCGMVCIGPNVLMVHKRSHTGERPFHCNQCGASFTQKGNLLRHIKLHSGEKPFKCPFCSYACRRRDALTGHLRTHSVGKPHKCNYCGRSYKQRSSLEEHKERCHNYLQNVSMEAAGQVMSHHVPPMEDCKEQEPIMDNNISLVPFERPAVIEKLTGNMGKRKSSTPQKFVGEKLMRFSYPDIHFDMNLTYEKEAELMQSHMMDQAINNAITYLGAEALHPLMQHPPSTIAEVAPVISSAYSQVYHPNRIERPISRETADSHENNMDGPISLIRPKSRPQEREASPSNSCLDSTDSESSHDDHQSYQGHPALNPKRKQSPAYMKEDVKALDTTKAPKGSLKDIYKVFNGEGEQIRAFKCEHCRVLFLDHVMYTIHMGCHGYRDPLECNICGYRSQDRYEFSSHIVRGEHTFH
Sequence of IKZF2 Helios (Q96SW2 whole entry): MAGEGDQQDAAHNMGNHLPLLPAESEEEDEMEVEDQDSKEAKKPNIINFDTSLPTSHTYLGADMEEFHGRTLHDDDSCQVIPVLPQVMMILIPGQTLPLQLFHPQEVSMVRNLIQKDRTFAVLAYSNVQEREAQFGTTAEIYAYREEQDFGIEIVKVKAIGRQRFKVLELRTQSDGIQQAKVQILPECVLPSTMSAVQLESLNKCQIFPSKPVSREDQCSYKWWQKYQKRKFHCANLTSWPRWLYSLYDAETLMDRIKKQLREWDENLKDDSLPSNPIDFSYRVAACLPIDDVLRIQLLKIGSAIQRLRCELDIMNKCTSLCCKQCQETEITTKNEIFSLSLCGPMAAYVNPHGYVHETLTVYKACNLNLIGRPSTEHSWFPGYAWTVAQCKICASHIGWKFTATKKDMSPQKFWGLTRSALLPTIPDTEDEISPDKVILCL
Sequence of IKZF2 Helios (Q16531 whole entry partner): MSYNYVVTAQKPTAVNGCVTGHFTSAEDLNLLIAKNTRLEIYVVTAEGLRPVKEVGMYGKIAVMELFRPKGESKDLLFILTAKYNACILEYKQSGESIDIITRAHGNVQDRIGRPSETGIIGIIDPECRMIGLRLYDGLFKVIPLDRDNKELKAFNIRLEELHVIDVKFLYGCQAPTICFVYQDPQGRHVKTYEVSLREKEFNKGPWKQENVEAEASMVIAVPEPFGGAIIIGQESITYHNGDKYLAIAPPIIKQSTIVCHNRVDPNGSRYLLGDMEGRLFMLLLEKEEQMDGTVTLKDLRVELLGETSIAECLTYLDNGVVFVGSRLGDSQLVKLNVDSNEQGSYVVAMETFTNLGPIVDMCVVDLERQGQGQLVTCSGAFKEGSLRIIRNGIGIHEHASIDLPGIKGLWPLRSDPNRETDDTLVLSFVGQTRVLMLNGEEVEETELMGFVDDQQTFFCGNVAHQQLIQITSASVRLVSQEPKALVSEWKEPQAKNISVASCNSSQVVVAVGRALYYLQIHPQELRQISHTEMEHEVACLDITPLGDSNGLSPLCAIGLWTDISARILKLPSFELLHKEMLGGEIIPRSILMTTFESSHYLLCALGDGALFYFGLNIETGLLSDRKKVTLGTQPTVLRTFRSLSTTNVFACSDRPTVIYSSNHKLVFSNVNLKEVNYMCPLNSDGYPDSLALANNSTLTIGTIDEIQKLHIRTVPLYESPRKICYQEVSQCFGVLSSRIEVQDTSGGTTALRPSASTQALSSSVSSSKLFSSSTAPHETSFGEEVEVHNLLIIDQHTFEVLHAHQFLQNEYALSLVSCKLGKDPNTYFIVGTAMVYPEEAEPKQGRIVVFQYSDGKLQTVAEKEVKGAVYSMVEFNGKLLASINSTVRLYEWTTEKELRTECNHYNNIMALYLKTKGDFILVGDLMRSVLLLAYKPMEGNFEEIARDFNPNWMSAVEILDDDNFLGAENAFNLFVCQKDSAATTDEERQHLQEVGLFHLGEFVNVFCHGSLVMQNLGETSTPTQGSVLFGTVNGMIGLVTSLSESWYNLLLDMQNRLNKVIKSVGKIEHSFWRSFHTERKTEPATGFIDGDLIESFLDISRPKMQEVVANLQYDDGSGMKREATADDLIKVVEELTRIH
Method: (§1) Cryopreserved human regulatory T cells were thawed in RPMI+10% FBS+20 ng/mL IL-2. After being spun at 1200 rpm for 5 mins, the cells were resuspended in RPMI+10% FBS+20 ng/mL and rested at 37° C. with 5% CO2 for 3 hours. The cells were then plated at 40,000 cells/well in 40 μL RPMI+10% FBS+20 ng/ml human IL-2 in a 384 well cell culture plate prior to using acoustic dispensing technology (ECHO 555) for adding compounds of interest. Cell cultures were incubated for 20 hours at 37° C. and 5% CO2. In order to facilitate analysis, cell cultures were spun down at 1200 rpm for 5 minutes and the supernatant was discarded using an EL406 plate washer. After washing three times with 70 μL PBS, cell pellets were resuspended in 50 μL of near IR viability staining solution (Life Technologies, Cat #L34975) and incubated for 30 minutes on ice protected from light. Cells were washed three times with 70 μL PBS+0.5% BSA using an EL406 plate washer. After shaking the plate to dislodge the cell pellet, cells were resuspended in 50 μL of Fixation Buffer (eBioScience FoxP3 buffer set 00-5523-00) for 60 minutes at room temperature. After centrifuging and discarding the supernatant, cells were permeabilized with 50 μL of permeabilization buffer (eBioScience FoxP3 buffer set 00-5523-00) for 10 minutes at room temperature. Following permeabilization, cells were spun down and the supernatant was replaced with 30 μL fluorescently labelled antibodies against the intracellular targets Helios (Helios-APC [BioLegend, Cat #137222, 1:50])]), Aiolos, and Ikaros 1× Permeabilization buffer and staining reactions were incubated for 1 bour at room temperature; protected from light. Subsequently, 30 μL of 1× Permeabilization buffer was added prior to centrifuging the cells and discarding the supernatant. Stained cells were resuspended in 30 μL of flow cytometry staining buffer (PBS+0.5% BSA) and analyzed using an Intellicyt Ique Plus flow cytometer.
(§2) Table B-1 lists the maximum observed degradation of the IKZF1 protein and IKZF2 protein as measured in the Human Regulatory T Cell Degradation assay. The results in Table B-1 were rounded to two digits. In the Human Regulatory T Cell Degradation assay, a value of 100% indicated no detectable protein remaining or complete degradation of the protein; and a value of 0% indicated no detectable degradation of the protein by the test compound.

[2] = molecular target: IKZF1 Ikaros (Homo sapiens, UniProt Q13422+Q96SW2); assay: Human Regulatory T Cell Degradation Assay, IKZF1; format: cell-based; set-up: Cryopreserved healthy donor human peripheral blood mononuclear cells (PBMC); endogenous in cells; host or cells: human PBMC from healthy donors (CD8+ T cells by flow cytometry); settings: human regulatory T cells, 20 hours; for Dmax: Regulatory T cell, 100% = complete degradation, read-out: IKZF1 Ikaros max % deg. observed; for DC50: concentration reducing protein level by 50% vs DMSO
Sequence of IKZF1 Ikaros (Q13422 whole entry): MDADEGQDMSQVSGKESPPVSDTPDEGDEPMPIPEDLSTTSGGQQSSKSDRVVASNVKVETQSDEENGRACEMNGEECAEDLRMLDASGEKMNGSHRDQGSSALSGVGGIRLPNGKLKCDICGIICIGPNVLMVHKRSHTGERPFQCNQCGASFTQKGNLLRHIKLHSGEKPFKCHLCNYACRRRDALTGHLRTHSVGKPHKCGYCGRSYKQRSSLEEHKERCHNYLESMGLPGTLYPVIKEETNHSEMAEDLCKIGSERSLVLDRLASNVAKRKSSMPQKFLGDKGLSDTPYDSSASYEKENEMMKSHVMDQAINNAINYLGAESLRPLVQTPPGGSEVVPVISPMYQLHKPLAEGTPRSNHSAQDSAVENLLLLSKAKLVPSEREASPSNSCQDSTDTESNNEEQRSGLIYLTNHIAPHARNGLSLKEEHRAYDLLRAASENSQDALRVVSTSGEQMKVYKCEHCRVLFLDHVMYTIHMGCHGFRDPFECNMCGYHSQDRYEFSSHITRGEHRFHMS
Sequence of IKZF1 Ikaros (Q96SW2 whole entry): as the sequence (Q96SW2 whole entry) above
Sequence of IKZF1 Ikaros (Q16531 whole entry partner): as the sequence (Q16531 whole entry partner) above
Method: as §1, §2

SMILES | Dmax [1] [%] | Dmax [2] [%] | DC50 [2] [µM] | DC50 ([1]; concentration reducing protein level by 50% vs DMSO) [µM]
O=C1CCC(n2cc(-c3ccc(Br)cc3F)oc2=O)C(=O)N1 (stereo not drawn) [Comparative Compound B, 3-(5-(4-bromo-2-fluorophenyl)-2-oxooxazol-3(2H)-yl)piperidine-2,6-dione] | 25 | 47 | – | –
O=C1CCC(n2cc(-c3ccccc3)oc2=O)C(=O)N1 (stereo not drawn) [Comparative Compound A, 3-(2-oxo-5-phenyloxazol-3(2H)-yl)piperidine-2,6-dione] | 57 | 24 | > 10 | –
Cc1cc(-c2ccc(-c3cn(C4CCC(=O)NC4=O)c(=O)o3)c(F)c2)nc(N)c1OC(F)F (stereo not drawn) [Example 1, 3-(5-(4-(6-Amino-5-(difluoromethoxy)-4-methylpyridin-2-yl)-2-fluorophenyl)-2-oxooxazol-3(2H)-yl)piperidine-2,6-dione] | 90 | 46 | > 10 | 0.00068
